In patent US20100267561A1, “HERBICIDAL PYRIDAZINONE DERIVATIVES” (priority 2007, published 2010):

Assays:
Assay type in all cases: in vivo
[1] = system: bermudagrass (Cynodon dactylon); assay: Test B pre-/postemergence plant response; conditions: for Bermudagrass plant response rating: 8 g ai/ha
Method in brief: (§1)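 Preemergence and postemergence (plants 2-18 cm, 1- to 4-leaf stage) applications used test chemicals in a non-phytotoxic solvent with surfactant. Plants were held in a greenhouse 13 to 15 days, then rated visually against controls on a 0-100 scale (0 no effect, 100 complete control).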

[2] = system: velvetleaf (Abutilon theophrasti); assay: Test B pre-/postemergence plant response; conditions: for Velvetleaf plant response rating: 8 g ai/ha
Method in brief: as §1

[3] = system: eastern black (E.B.) nightshade (Solanum ptycanthum); assay: Test B pre-/postemergence plant response; conditions: Preemergence
Method in brief: as §1

[4] = system: corn (Zea mays); assay: Test B pre-/postemergence plant response; conditions: for Corn plant response rating: 8 g ai/ha
Method in brief: as §1

[5] = system: morningglory (Ipomoea coccinea); assay: Test B pre-/postemergence plant response; conditions: for Morningglory plant response rating: 8 g ai/ha
Method in brief: as §1

[6] = system: giant foxtail (Setaria faberii); assay: Test B pre-/postemergence plant response; conditions: for Foxtail, Giant plant response rating: 8 g ai/ha
Method in brief: as §1

[7] = system: lambsquarters (Chenopodium album); assay: Test B pre-/postemergence plant response; conditions: for Lambsquarters plant response rating: 8 g ai/ha
Method in brief: as §1

[8] = system: wild oat (Avena fatua); assay: Test B pre-/postemergence plant response; conditions: for Oat, Wild plant response rating: 8 g ai/ha
Method in brief: as §1

[9] = system: yellow nutsedge (Cyperus esculentus); assay: Test B pre-/postemergence plant response; conditions: for Nutsedge, Yellow plant response rating: 8 g ai/ha
Method in brief: as §1

[10] = system: blackgrass (Alopecurus myosuroides); assay: Test B pre-/postemergence plant response; conditions: for Blackgrass plant response rating: 8 g ai/ha
Method in brief: as §1

[11] = system: chickweed (Stellaria media); assay: Test B postemergence plant response; conditions: for Plant response rating, Chickweed: Postemergence
Method in brief: (§2)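 Compounds applied after emergence to 2–18 cm plants; response read visually 13–15 days later on 0 (none) to 100 (complete control); a dash marks no result.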

[12] = system: winter barley (Hordeum vulgare); assay: Test B postemergence plant response; conditions: for Plant response rating, Barley: Postemergence
Method in brief: as §2

[13] = system: canarygrass (Phalaris minor); assay: Test B postemergence plant response; conditions: for Plant response rating, Canarygrass: Postemergence
Method in brief: as §2

[14] = system: windgrass (Apera spica-venti); assay: Test B postemergence plant response; conditions: for Plant response rating, Windgrass: Postemergence
Method in brief: as §2

[15] = system: barnyardgrass (Echinochloa crus-galli); assay: Test B flooded paddy test plant response; conditions: Flood (flooded paddy test), scale 0 to 100, 0 no effect, 100 complete control
Method in brief: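 Compounds were added directly to paddy water over 2-leaf-stage plants in pots flooded 3 cm above soil, water depth maintained. Visual injury scored against controls after 13 to 15 days in greenhouse, 0 (none) to 100 (complete control); dash indicates no result.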

[16] = Postemergence, 16 g ai/ha, scale 0 to 100
[17] = Postemergence, 31 g ai/ha, scale 0 to 100, 0 no effect, 100 complete control
[18] = Postemergence, 62 g ai/ha, scale 0 to 100
[19] = Preemergence, 16 g ai/ha, scale 0 to 100 (0 no effect, 100 complete control)
[20] = Preemergence, 31 g ai/ha, 0 to 100 scale, 0 no effect, 100 complete control
[21] = Preemergence, 62 g ai/ha, scale 0 to 100
[22] = 8 g ai/ha, postemergence, 0-100 scale
[23] = 31 g ai/ha, scale 0 to 100, 0 no effect, 100 complete control

For CCc1cc(-c2ccc(F)cc2)nn1-c1c(O)cnn(C)c1=O [Compound 25], the “Bermudagrass plant response rating” value ([1]; postemergence, 0-100 scale) was 0, the “Plant response rating, Bermudagrass” value [1, 16] was 0 and the “Plant response rating, Bermudagrass” value [1, 17] was 60. For the same compound, the “Plant response rating, Bermudagrass” value [1, 18] was 60, the “Bermudagrass plant response rating” value ([1]; Preemergence, scale 0 to 100 (0 no effect, 100 complete control)) was 0 and the “Plant response rating, Bermudagrass” value [1, 19] was 70. The “Plant response rating, Bermudagrass” value [1, 20] was 80, the “Plant response rating, Bermudagrass” value [1, 21] was 100 and the “Velvetleaf plant response rating” value ([2]; postemergence, 0-100 scale) was 0. The “Plant response rating, Velvetleaf” value [2, 16] was 0, the “Plant response rating, Velvetleaf” value [2, 17] was 0 and the “Plant response rating, Velvetleaf” value [2, 18] was 0. For the same compound, the “Plant response rating, Velvetleaf” value [2, 19] was 0, the “Plant response rating, Velvetleaf” value [2, 20] was 0 and the “Plant response rating, Velvetleaf” value [2, 21] was 0. The “Velvetleaf plant response rating” value ([2]; Preemergence, scale 0 to 100) was 0, the “Plant response rating, Nightshade, E. B.” value ([3]; 16 g ai/ha, scale 0 to 100 (0 no effect, 100 complete control)) was 0 and the “Plant response rating, Nightshade, E. B.” value ([3]; 31 g ai/ha, 0 to 100 scale, 0 no effect, 100 complete control) was 0. For the same compound, the “Plant response rating, Nightshade, E. B.” value ([3]; 62 g ai/ha, scale 0 to 100) was 0, the “Nightshade, E. B. plant response rating” value ([3]; 8 g ai/ha, scale 0 to 100) was 0 and the “Corn plant response rating” value ([4]; postemergence, 0-100 scale) was 0. For the same compound, the “Plant response rating, Corn” value [4, 16] was 50, the “Plant response rating, Corn” value [4, 17] was 95 and the “Plant response rating, Corn” value [4, 19] was 5. For the same compound, the “Plant response rating, Corn” value [4, 20] was 50, the “Plant response rating, Corn” value [4, 21] was 75 and the “Corn plant response rating” value ([4]; Preemergence, scale 0 to 100) was 0. The “Morningglory plant response rating” value ([5]; postemergence, 0-100 scale) was 0, the “Plant response rating, Morningglory” value [5, 16] was 0 and the “Plant response rating, Morningglory” value [5, 17] was 0. For the same compound, the “Plant response rating, Morningglory” value [5, 18] was 20, the “Plant response rating, Morningglory” value [5, 19] was 0 and the “Plant response rating, Morningglory” value [5, 20] was 0. The “Plant response rating, Morningglory” value [5, 21] was 0, the “Morningglory plant response rating” value ([5]; Preemergence, scale 0 to 100) was 0 and the “Foxtail, Giant plant response rating” value ([6]; postemergence, 0-100 scale) was 70. The “Plant response rating, Foxtail, Giant” value [6, 16] was 85, the “Plant response rating, Foxtail, Giant” value [6, 17] was 85 and the “Plant response rating, Foxtail, Giant” value [6, 18] was 95. The “Plant response rating, Foxtail, Giant” value [6, 19] was 60, the “Plant response rating, Foxtail, Giant” value [6, 20] was 90 and the “Plant response rating, Foxtail, Giant” value [6, 21] was 100. The “Foxtail, Giant plant response rating” value ([6]; Preemergence, scale 0 to 100) was 50, the “Lambsquarters plant response rating” value ([7]; postemergence, 0-100 scale) was 0 and the “Plant response rating, Lambsquarters” value [7, 16] was 0. The “Plant response rating, Lambsquarters” value [7, 17] was 0, the “Plant response rating, Lambsquarters” value [7, 18] was 10 and the “Plant response rating, Lambsquarters” value [7, 19] was 0. The “Plant response rating, Lambsquarters” value [7, 20] was 0, the “Plant response rating, Lambsquarters” value [7, 21] was 40 and the “Lambsquarters plant response rating” value ([7]; Preemergence, scale 0 to 100) was 0. For the same compound, the “Oat, Wild plant response rating” value ([8]; postemergence, 0-100 scale) was 25, the “Plant response rating, Oat, Wild” value [8, 16] was 55 and the “Plant response rating, Oat, Wild” value [8, 17] was 70. For the same compound, the “Plant response rating, Oat, Wild” value [8, 18] was 95, the “Plant response rating, Oat, Wild” value [8, 19] was 0 and the “Plant response rating, Oat, Wild” value [8, 20] was 0. The “Plant response rating, Oat, Wild” value [8, 21] was 60, the “Oat, Wild plant response rating” value ([8]; Preemergence, scale 0 to 100) was 0 and the “Nutsedge, Yellow plant response rating” value ([9]; postemergence, 0-100 scale) was 0. The “Plant response rating, Nutsedge, Yellow” value [9, 16] was 0, the “Plant response rating, Nutsedge, Yellow” value [9, 17] was 0 and the “Plant response rating, Nutsedge, Yellow” value [9, 18] was 0. For the same compound, the “Plant response rating, Nutsedge, Yellow” value [9, 19] was 0, the “Plant response rating, Nutsedge, Yellow” value [9, 20] was 0 and the “Plant response rating, Nutsedge, Yellow” value [9, 21] was 0. The “Nutsedge, Yellow plant response rating” value ([9]; Preemergence, scale 0 to 100) was 0, the “Blackgrass plant response rating” value ([10]; postemergence, 0-100 scale) was 0 and the “Plant response rating, Blackgrass” value [10, 16] was 40. The “Plant response rating, Blackgrass” value [10, 17] was 75, the “Plant response rating, Blackgrass” value [10, 18] was 95 and the “Plant response rating, Blackgrass” value [10, 21] was 90. For the same compound, the “Blackgrass plant response rating” value ([10]; Preemergence, scale 0 to 100) was 70, the “Chickweed plant response rating” value [11, 22] was 0 and the “Plant response rating, Chickweed” value ([11]; 16 g ai/ha, scale 0 to 100) was 0. The “Plant response rating, Chickweed” value [11, 23] was 0, the “Plant response rating, Chickweed” value ([11]; 62 g ai/ha, scale 0 to 100) was 0 and the “Barley plant response rating” value [12, 22] was 0. The “Plant response rating, Barley” value ([12]; 16 g ai/ha, scale 0 to 100, 0 no effect, 100 complete control) was 0, the “Plant response rating, Barley” value [12, 23] was 0 and the “Plant response rating, Barley” value ([12]; 62 g ai/ha, scale 0 to 100) was 0. For the same compound, the “Canarygrass plant response rating” value [13, 22] was 0, the “Plant response rating, Canarygrass” value ([13]; 16 g ai/ha, scale 0 to 100) was 0 and the “Plant response rating, Canarygrass” value [13, 23] was 0. For the same compound, the “Plant response rating, Canarygrass” value ([13]; 62 g ai/ha, scale 0 to 100) was 10, the “Windgrass plant response rating” value [14, 22] was 40 and the “Plant response rating, Windgrass” value ([14]; 16 g ai/ha, scale 0 to 100) was 60. For the same compound, the “Plant response rating, Windgrass” value [14, 23] was 60, the “Plant response rating, Windgrass” value ([14]; 62 g ai/ha, scale 0 to 100) was 98 and the “Plant response rating, Barnyardgrass” value ([15]; 62 g ai/ha) was 0. The “Plant response rating, Barnyardgrass” value ([15]; 250 g ai/ha) was 0.
